The test system of one experiment is 349418-098-R-PDC complex spheroid viability. As to the kind of experiment: Anticancer human tumor 349418-098-R-PDC patient-derived lung adenocarcinoma cell line growth inhibition [RAS]. Particulars: second compound 0.0316 µM; first compound 1 µM; hits give low values. A digest of the protocol:
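Multi-cell-type spheroids: tumor cells plus HUVEC endothelial cells and mesenchymal stem cells. RAS-pathway inhibitors were combined with targeted agents, each dosed in half-log steps down from clinical Cmax, or from 10 microM when Cmax was unknown.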
As a reminder, the viability, T/C is the ratio of treated to control. For `CCC(CC)c1cc(NC2CCC(N)C2)n2nccc2n1` (stereo unspecified) + C=CC(=O)N1CCN(c2nc(OCC3CCCN3C)nc3c(F)c(-c4nc(N)cc(C)c4C(F)(F)F)c(Cl)cc23)C(C)C1, the viability, T/C was 40.8%.

With `Cc1nc(N2CCC3(CC2)COC(C)C3N)c(CO)nc1Sc1ccnc(N)c1Cl` (stereo unspecified) + C=CC(=O)N1CCN(c2nc(OCC3CCCN3C)nc3c(F)c(-c4nc(N)cc(C)c4C(F)(F)F)c(Cl)cc23)C(C)C1, the viability, T/C was 73.6%.

With `NC1c2ccccc2OC12CCN(c1cnc3c(N4CCCc5ncccc54)n[nH]c3n1)CC2` (stereo unspecified) + C=CC(=O)N1CCN(c2nc(OCC3CCCN3C)nc3c(F)c(-c4nc(N)cc(C)c4C(F)(F)F)c(Cl)cc23)C(C)C1, the viability, T/C was 86%.

Still in this experiment, the particulars now being: second compound 0.0316 µM; first compound 3.16 µM; hits give low values.
As for `CCC(CC)c1cc(NC2CCC(N)C2)n2nccc2n1` (stereo unspecified) + C=CC(=O)N1CCN(c2nc(OCC3CCCN3C)nc3c(F)c(-c4nc(N)cc(C)c4C(F)(F)F)c(Cl)cc23)C(C)C1, the viability, T/C was 2.8%.

As to `Cc1nc(N2CCC3(CC2)COC(C)C3N)c(CO)nc1Sc1ccnc(N)c1Cl` (stereo unspecified) + C=CC(=O)N1CCN(c2nc(OCC3CCCN3C)nc3c(F)c(-c4nc(N)cc(C)c4C(F)(F)F)c(Cl)cc23)C(C)C1, the viability, T/C was 120%.

As for `NC1c2ccccc2OC12CCN(c1cnc3c(N4CCCc5ncccc54)n[nH]c3n1)CC2` (stereo unspecified) + C=CC(=O)N1CCN(c2nc(OCC3CCCN3C)nc3c(F)c(-c4nc(N)cc(C)c4C(F)(F)F)c(Cl)cc23)C(C)C1, the viability, T/C is 82.3%.

Still in this experiment, the particulars now being: second compound 0.0316 µM; first compound 10 µM; hits give low values.
On to `CCC(CC)c1cc(NC2CCC(N)C2)n2nccc2n1` (stereo unspecified) + C=CC(=O)N1CCN(c2nc(OCC3CCCN3C)nc3c(F)c(-c4nc(N)cc(C)c4C(F)(F)F)c(Cl)cc23)C(C)C1, for which the viability, T/C is 2.99%.

Regarding `Cc1nc(N2CCC3(CC2)COC(C)C3N)c(CO)nc1Sc1ccnc(N)c1Cl` (stereo unspecified) + C=CC(=O)N1CCN(c2nc(OCC3CCCN3C)nc3c(F)c(-c4nc(N)cc(C)c4C(F)(F)F)c(Cl)cc23)C(C)C1, the viability, T/C is 99%.

For `NC1c2ccccc2OC12CCN(c1cnc3c(N4CCCc5ncccc54)n[nH]c3n1)CC2` (stereo unspecified) + C=CC(=O)N1CCN(c2nc(OCC3CCCN3C)nc3c(F)c(-c4nc(N)cc(C)c4C(F)(F)F)c(Cl)cc23)C(C)C1, the viability, T/C was 71.1%.

Still in this experiment, the particulars now being: second compound 0.1 µM; first compound 0.0316 µM; hits give low values.
Turning to `CCC(CC)c1cc(NC2CCC(N)C2)n2nccc2n1` (stereo unspecified) + C=CC(=O)N1CCN(c2nc(OCC3CCCN3C)nc3c(F)c(-c4nc(N)cc(C)c4C(F)(F)F)c(Cl)cc23)C(C)C1, the viability, T/C was 73%.

On to `Cc1nc(N2CCC3(CC2)COC(C)C3N)c(CO)nc1Sc1ccnc(N)c1Cl` (stereo unspecified) + C=CC(=O)N1CCN(c2nc(OCC3CCCN3C)nc3c(F)c(-c4nc(N)cc(C)c4C(F)(F)F)c(Cl)cc23)C(C)C1, for which the viability, T/C was 82.8%.

As for `NC1c2ccccc2OC12CCN(c1cnc3c(N4CCCc5ncccc54)n[nH]c3n1)CC2` (stereo unspecified) + C=CC(=O)N1CCN(c2nc(OCC3CCCN3C)nc3c(F)c(-c4nc(N)cc(C)c4C(F)(F)F)c(Cl)cc23)C(C)C1, the viability, T/C is 100%.

Staying with this experiment, now noted: second compound 0.1 µM; first compound 0.1 µM; hits give low values.
Turning to `CCC(CC)c1cc(NC2CCC(N)C2)n2nccc2n1` (stereo unspecified) + C=CC(=O)N1CCN(c2nc(OCC3CCCN3C)nc3c(F)c(-c4nc(N)cc(C)c4C(F)(F)F)c(Cl)cc23)C(C)C1, the viability, T/C was 80.5%.

As to `Cc1nc(N2CCC3(CC2)COC(C)C3N)c(CO)nc1Sc1ccnc(N)c1Cl` (stereo unspecified) + C=CC(=O)N1CCN(c2nc(OCC3CCCN3C)nc3c(F)c(-c4nc(N)cc(C)c4C(F)(F)F)c(Cl)cc23)C(C)C1, the viability, T/C was 64.9%.

Turning to `NC1c2ccccc2OC12CCN(c1cnc3c(N4CCCc5ncccc54)n[nH]c3n1)CC2` (stereo unspecified) + C=CC(=O)N1CCN(c2nc(OCC3CCCN3C)nc3c(F)c(-c4nc(N)cc(C)c4C(F)(F)F)c(Cl)cc23)C(C)C1, the viability, T/C is 82.5%.

The experiment is the same for the next values; noted with them: second compound 0.1 µM; first compound 0.316 µM; hits give low values.
Turning to `CCC(CC)c1cc(NC2CCC(N)C2)n2nccc2n1` (stereo unspecified) + C=CC(=O)N1CCN(c2nc(OCC3CCCN3C)nc3c(F)c(-c4nc(N)cc(C)c4C(F)(F)F)c(Cl)cc23)C(C)C1, the viability, T/C was 102%.

Regarding `Cc1nc(N2CCC3(CC2)COC(C)C3N)c(CO)nc1Sc1ccnc(N)c1Cl` (stereo unspecified) + C=CC(=O)N1CCN(c2nc(OCC3CCCN3C)nc3c(F)c(-c4nc(N)cc(C)c4C(F)(F)F)c(Cl)cc23)C(C)C1, the viability, T/C is 92.5%.

For the molecule `NC1c2ccccc2OC12CCN(c1cnc3c(N4CCCc5ncccc54)n[nH]c3n1)CC2` (stereo unspecified) + C=CC(=O)N1CCN(c2nc(OCC3CCCN3C)nc3c(F)c(-c4nc(N)cc(C)c4C(F)(F)F)c(Cl)cc23)C(C)C1, the viability, T/C was 83.1%.

The experiment is the same for the next values; noted with them: second compound 0.1 µM; first compound 1 µM; hits give low values.
`CCC(CC)c1cc(NC2CCC(N)C2)n2nccc2n1` (stereo unspecified) + C=CC(=O)N1CCN(c2nc(OCC3CCCN3C)nc3c(F)c(-c4nc(N)cc(C)c4C(F)(F)F)c(Cl)cc23)C(C)C1: the viability, T/C was 45.8%.

For the molecule `Cc1nc(N2CCC3(CC2)COC(C)C3N)c(CO)nc1Sc1ccnc(N)c1Cl` (stereo unspecified) + C=CC(=O)N1CCN(c2nc(OCC3CCCN3C)nc3c(F)c(-c4nc(N)cc(C)c4C(F)(F)F)c(Cl)cc23)C(C)C1, the viability, T/C was 87.3%.

As for `NC1c2ccccc2OC12CCN(c1cnc3c(N4CCCc5ncccc54)n[nH]c3n1)CC2` (stereo unspecified) + C=CC(=O)N1CCN(c2nc(OCC3CCCN3C)nc3c(F)c(-c4nc(N)cc(C)c4C(F)(F)F)c(Cl)cc23)C(C)C1, the viability, T/C is 101%.

The experiment is the same for the next values; noted with them: second compound 0.1 µM; first compound 3.16 µM; hits give low values.
Consider `CCC(CC)c1cc(NC2CCC(N)C2)n2nccc2n1` (stereo unspecified) + C=CC(=O)N1CCN(c2nc(OCC3CCCN3C)nc3c(F)c(-c4nc(N)cc(C)c4C(F)(F)F)c(Cl)cc23)C(C)C1, for which the viability, T/C was 3.01%.

For the molecule `Cc1nc(N2CCC3(CC2)COC(C)C3N)c(CO)nc1Sc1ccnc(N)c1Cl` (stereo unspecified) + C=CC(=O)N1CCN(c2nc(OCC3CCCN3C)nc3c(F)c(-c4nc(N)cc(C)c4C(F)(F)F)c(Cl)cc23)C(C)C1, the viability, T/C was 81.2%.

As to `NC1c2ccccc2OC12CCN(c1cnc3c(N4CCCc5ncccc54)n[nH]c3n1)CC2` (stereo unspecified) + C=CC(=O)N1CCN(c2nc(OCC3CCCN3C)nc3c(F)c(-c4nc(N)cc(C)c4C(F)(F)F)c(Cl)cc23)C(C)C1, the viability, T/C is 119%.

The same experiment, now with this note: second compound 0.1 µM; first compound 10 µM; hits give low values.
For the molecule `CCC(CC)c1cc(NC2CCC(N)C2)n2nccc2n1` (stereo unspecified) + C=CC(=O)N1CCN(c2nc(OCC3CCCN3C)nc3c(F)c(-c4nc(N)cc(C)c4C(F)(F)F)c(Cl)cc23)C(C)C1, the viability, T/C was 3.2%.

Regarding `Cc1nc(N2CCC3(CC2)COC(C)C3N)c(CO)nc1Sc1ccnc(N)c1Cl` (stereo unspecified) + C=CC(=O)N1CCN(c2nc(OCC3CCCN3C)nc3c(F)c(-c4nc(N)cc(C)c4C(F)(F)F)c(Cl)cc23)C(C)C1, the viability, T/C is 82.9%.

`NC1c2ccccc2OC12CCN(c1cnc3c(N4CCCc5ncccc54)n[nH]c3n1)CC2` (stereo unspecified) + C=CC(=O)N1CCN(c2nc(OCC3CCCN3C)nc3c(F)c(-c4nc(N)cc(C)c4C(F)(F)F)c(Cl)cc23)C(C)C1: the viability, T/C was 76.7%.

Still in this experiment, the particulars now being: second compound 0.316 µM; first compound 0.0316 µM; hits give low values.
Regarding `CCC(CC)c1cc(NC2CCC(N)C2)n2nccc2n1` (stereo unspecified) + C=CC(=O)N1CCN(c2nc(OCC3CCCN3C)nc3c(F)c(-c4nc(N)cc(C)c4C(F)(F)F)c(Cl)cc23)C(C)C1, the viability, T/C is 111%.

As to `Cc1nc(N2CCC3(CC2)COC(C)C3N)c(CO)nc1Sc1ccnc(N)c1Cl` (stereo unspecified) + C=CC(=O)N1CCN(c2nc(OCC3CCCN3C)nc3c(F)c(-c4nc(N)cc(C)c4C(F)(F)F)c(Cl)cc23)C(C)C1, the viability, T/C is 81%.

Take `NC1c2ccccc2OC12CCN(c1cnc3c(N4CCCc5ncccc54)n[nH]c3n1)CC2` (stereo unspecified) + C=CC(=O)N1CCN(c2nc(OCC3CCCN3C)nc3c(F)c(-c4nc(N)cc(C)c4C(F)(F)F)c(Cl)cc23)C(C)C1: the viability, T/C is 80%.

Still in this experiment, the particulars now being: second compound 0.316 µM; first compound 0.1 µM; hits give low values.
With `CCC(CC)c1cc(NC2CCC(N)C2)n2nccc2n1` (stereo unspecified) + C=CC(=O)N1CCN(c2nc(OCC3CCCN3C)nc3c(F)c(-c4nc(N)cc(C)c4C(F)(F)F)c(Cl)cc23)C(C)C1, the viability, T/C was 88.1%.

Source of the values: PubChem BioAssay AID2060904 (Molecular Pharmacology Branch, DTP, NCI, 2025).
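Further: spheroids exposed to compound for seven days before viability readout.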
